Measured values taken from article PMC11111408, “Concurrent inhibition of oncogenic and wild-type RAS-GTP for cancer therapy” (Nature, 2024).

Tested on: PRISM DNA-barcoded human tumour cell lines
Assay: PRISM pooled cell viability assay;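 on PRISM AUC: 8 threefold dilutions from 10 µM with 5 days of exposure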
Format: cell-based
Design: AUC (PRISM viability) / AUC (PRISM): unit not given beside the values
Conditions: for PRISM AUC: KRAS MUT; for AUC (PRISM viability): WT
Method: Cells were then lysed in TCL mRNA lysis buffer, and then PCR with reverse transcription was performed. Detection of the barcodes and univariate and multivariate analysis was then performed as previously described. Data analysis is described in the Supplementary Methods. Up-to-date code for our analysis is at the github link: https://github.com/cmap/dockerized_mts.
For every gene with non-silent mutations in at least four cell-lines, we compared the AUC values between cells with and without those mutations using a t-test. This analysis was carried out for: (i) the full dataset; (ii) excluding cell lines with non-silent KRAS mutations; and (iii) excluding cell lines that have either KRAS or NRAS non-silent mutations.

## CCn1c(-c2cc(N3CCN(C4CC4)CC3)cnc2[C@H](C)OC)c2c3cc(ccc31)-c1csc(n1)C[C@H](NC(=O)[C@H]1[C@@H]3COC[C@@H]31)C(=O)N1CCC[C@H](N1)C(=O)OCC(C)(C)C2 [RMC-7977]
SW620_LARGE_INTESTINE
  PRISM AUC: 0.1434
SW780_URINARY_TRACT
  AUC (PRISM viability): 0.559
SW900_LUNG
  PRISM AUC: 0.3401
SW1088_CENTRAL_NERVOUS_SYSTEM
  AUC (PRISM viability): 0.6279
SW1271_LUNG
  AUC (PRISM viability): 0.5768
SW1353_BONE
  AUC (PRISM viability): 0.841
SW1710_URINARY_TRACT
  AUC (PRISM viability): 0.7469
SW1783_CENTRAL_NERVOUS_SYSTEM
  AUC (PRISM viability): 0.7461
SW1990_PANCREAS
  PRISM AUC: 0.4703
T3M10_LUNG
  PRISM AUC: 0.7347
T24_URINARY_TRACT
  AUC (PRISM viability): 0.4656
T47D_BREAST
  AUC (PRISM viability): 0.8281
T84_LARGE_INTESTINE
  PRISM AUC: 0.5086
T98G_CENTRAL_NERVOUS_SYSTEM
  AUC (PRISM viability): 0.6265
TALL1_HAEMATOPOIETIC_AND_LYMPHOID_TISSUE
  AUC (PRISM viability): 0.6203
TC32_BONE
  AUC (PRISM viability): 0.7163
TC71_BONE
  AUC (PRISM viability): 0.7602
TCCPAN2_PANCREAS
  PRISM AUC: 0.4522
TCCSUP_URINARY_TRACT
  AUC (PRISM viability): 0.7623
TE1_OESOPHAGUS
  AUC (PRISM viability): 0.7271
TE5_OESOPHAGUS
  AUC (PRISM viability): 0.4124
TE6_OESOPHAGUS
  AUC (PRISM viability): 0.4273
TE8_OESOPHAGUS
  AUC (PRISM viability): 0.499
TE9_OESOPHAGUS
  AUC (PRISM viability): 0.6448
TE10_OESOPHAGUS
  AUC (PRISM viability): 0.472
TE11_OESOPHAGUS
  AUC (PRISM viability): 0.5416
TE14_OESOPHAGUS
  AUC (PRISM viability): 0.4491
TE15_OESOPHAGUS
  AUC (PRISM viability): 0.2922
TE617T_SOFT_TISSUE
  AUC (PRISM viability): 0.2711
TF1_HAEMATOPOIETIC_AND_LYMPHOID_TISSUE
  AUC (PRISM viability): 0.2378
THP1_HAEMATOPOIETIC_AND_LYMPHOID_TISSUE
  AUC (PRISM viability): 0.3541
TM31_CENTRAL_NERVOUS_SYSTEM
  AUC (PRISM viability): 0.8811
TOV21G_OVARY
  PRISM AUC: 0.5751
TOV112D_OVARY
  AUC (PRISM viability): 0.6714
TT2609C02_THYROID
  AUC (PRISM viability): 0.2965
TT_OESOPHAGUS
  AUC (PRISM viability): 0.5096
TT_THYROID
  AUC (PRISM viability): 1
TUHR4TKB_KIDNEY
  AUC (PRISM viability): 1
TYKNU_OVARY
  AUC (PRISM viability): 0.2088
U2OS_BONE
  AUC (PRISM viability): 0.5581
U87MG_CENTRAL_NERVOUS_SYSTEM
  AUC (PRISM viability): 0.5899
U118MG_CENTRAL_NERVOUS_SYSTEM
  AUC (PRISM viability): 0.8323
U178_CENTRAL_NERVOUS_SYSTEM
  AUC (PRISM viability): 0.6826
U251MG_CENTRAL_NERVOUS_SYSTEM
  AUC (PRISM viability): 0.531
U343_CENTRAL_NERVOUS_SYSTEM
  AUC (PRISM viability): 0.5615
U937_HAEMATOPOIETIC_AND_LYMPHOID_TISSUE
  AUC (PRISM viability): 0.5098
UACC62_SKIN
  AUC (PRISM viability): 0.8484
UACC257_SKIN
  AUC (PRISM viability): 0.9461
UMUC1_URINARY_TRACT
  AUC (PRISM viability): 0.3417
UO31_KIDNEY
  AUC (PRISM viability): 0.7674
VMCUB1_URINARY_TRACT
  AUC (PRISM viability): 0.3401
VMRCRCW_KIDNEY
  AUC (PRISM viability): 0.6728
VMRCRCZ_KIDNEY
  AUC (PRISM viability): 0.8522
WM88_SKIN
  AUC (PRISM viability): 0.8971
WM793_SKIN
  AUC (PRISM viability): 0.8157
WM983B_SKIN
  AUC (PRISM viability): 0.8254
WM1799_SKIN
  AUC (PRISM viability): 0.8407
WM2664_SKIN
  AUC (PRISM viability): 1
WSUDLCL2_HAEMATOPOIETIC_AND_LYMPHOID_TISSUE
  AUC (PRISM viability): 0.6176
YAPC_PANCREAS
  PRISM AUC: 0.2462
YD8_UPPER_AERODIGESTIVE_TRACT
  PRISM AUC: 0.7835
YD10B_UPPER_AERODIGESTIVE_TRACT
  AUC (PRISM viability): 0.2966
YD15_SALIVARY_GLAND
  AUC (PRISM viability): 0.5241
YD38_UPPER_AERODIGESTIVE_TRACT
  AUC (PRISM viability): 0.2157
YH13_CENTRAL_NERVOUS_SYSTEM
  AUC (PRISM viability): 0.7662
YKG1_CENTRAL_NERVOUS_SYSTEM
  AUC (PRISM viability): 0.6011
ZR751_BREAST
  AUC (PRISM viability): 0.8548
